Data from patent US7745402B2, “Method of treating pancreatitis” (Lundbeck Inc., priority 2005, dated 2010).

Key:
macrophages = assay: In vivo macrophage homing to the pancreas, bioluminescence imaging; set-up: species or system FVB/n mice; conditions: single dose of hemin 24 h prior to cell transfer
Experimental: FIG. 4: Effect of hemin on in vivo macrophage homing to the pancreas using bioluminescence imaging. (A) Experimental scheme of cell transfer. Hemin (H) was injected 3× intraperitoneally into luciferase-overexpressing (+/+) mice, then peritoneal cells were harvested and macrophages were selected using anti-Mac-1 magnetic beads. Luciferase/Mac-1 double-positive cells were transferred intraperitoneally to wild-type (luciferase −/−) mice that were preinjected with one dose of H or vehicle (V) 24 h prior to the transfer. This hemin injection is necessary to induce pancreatic chemokines (FIG. 3C). (B) Live images of recipient intact anesthetized mice were taken 5 min (a) or 24 h (b) after cell transfer. Livers and pancreata were removed 24 h after the transfer followed by imaging (c). The signal intensity scale bar is shown below each image. (C) A duplicate of the pancreata shown in image c of panel B (from recipients receiving donor cells from H-injected animals) was double-stained with antibodies to luciferase and F4/80. […] Bar in panel c=50 μm.
The present invention offers a novel approach of immune-mediated therapy via the unanticipated effect of hemin on leukocyte recruitment to the pancreas. Based on a mouse animal model of pancreatitis, the therapeutic approach of the present invention has applicability to other mammalian, particularly human, pancreatitis. […]

HO-1 = assay: Double-staining of pancreas for HO-1 and cell markers after hemin and CDD; assay type: in vivo, mice; conditions: hemin pretreatment, 3 days of CDD
Excerpt: Pancreata of mice pretreated with hemin followed by 3 days of CDD feeding were isolated, sectioned, then double-stained using antibodies to HO-1 (a, d and g) and keratin polypeptide 8 (epithelial marker, b), vimentin (mesenchymal marker, e) or MJ7/18 (endothelial marker, h). Merging of the indicated images is shown in the right panels. Scale bar in panel i=20 μm. HO-1 staining of pancreas from mice treated with vehicle alone (without CDD) afforded background staining (inset of panel a).
(§1) Animal procedures. Mice were euthanized by CO2 inhalation then pancreata and lungs were rapidly removed, divided into 3-4 pieces, and blood was collected by intracardiac puncture. […] Immunofluorescence staining was performed as described (29) and images were analyzed using confocal microscopy. Total tissue lysates were prepared by homogenization in Laemmli sample buffer and analyzed by SDS-PAGE followed by transfer to membranes for blotting and protein visualization by enhanced chemiluminescence. Trypsin activity was determined using a fluorimetric assay and the substrate Boc-Gln-Ala-Arg-MCA (Peptides International Inc.; Louisville, Ky.), and comparison to a standard curve generated with purified trypsin as described. […] Lung injury after caerulein administration was assessed as previously described, based on neutrophilic infiltration, pulmonary edema, alveolar distension and collapse. […]

HO-2 = HO-2 immunoblot of mouse tissue homogenates after hemin; assay type: in vivo, mice; conditions: any of the tissues; hemin 3× during 7 d
CDD-induced pancreatitis = assay: Choline deficient diet (CDD)-induced pancreatitis after hemin pretreatment
Experimental: (D-F) Mice were injected with saline, hemin, or vehicle (8 mice/group)3×(arrows) followed by feeding with CDD for 3 d then harvesting of the pancreata.
Balb/c mice were housed under pathogen-free conditions and utilized in two established models of pancreatitis. […] For the pancreatitis induced by feeding a choline/methionine-deficient diet (CDD), young female mice (15-19 g) were fasted then fed CDD (Harlan Teklad; Madison Wis.) supplemented with 0.5% DL-ethionine (Sigma; St. Louis, Mo.) or normal chow (control group) for 3 d, then switched to normal diet for 1, 2 or 5 d.
Animal procedures. Mice were euthanized by CO2 inhalation then pancreata and lungs were rapidly removed, divided into 3-4 pieces, and blood was collected by intracardiac puncture. Individual lung and pancreas fragments were immediately fixed in 10% formalin, embedded in OCT (Miles; Elkhart, Ind.) or snap-frozen in liquid N2 for subsequent protein, enzyme, and RNA analysis. […] Fixed tissues were sectioned then stained using hematoxylin and eosin (performed by Histo-tec Laboratory; Hayward, Calif.).

[1] = test system: HO-1^+ pancreatic macrophages; assay: Staining of pancreatic macrophages (HO-1, F4/80) after hemin; assay type: in vivo, mice; conditions: intraperitoneal hemin
Experimental: FIG. 3: Hemin increases HO-1^+ pancreatic macrophages in association with MCP-1 and MIP-1α induction. (A) Pancreas from CDD-fed mice was triple-stained using antibodies to HO-1 (a), the macrophage marker F4/80 (b), and the granulocyte marker Gr-1 (c). Scale bar in panel d=20 μM. (B) Mice were treated intraperitoneally with hemin (H) or vehicle (V) once (H×1) or 3×(H×3, V×3) during a one week period, followed by feeding with CDD or regular chow for 3 d. Pancreata were collected followed by staining and counting F4/80^+ macrophages in 10 randomly selected high power fields (HPF). The mean±SD (3 mice/group) and p-value for the indicated comparisons are shown. […]
as §1, with “procedures.” for “procedures. Mice were euthanized by CO2 inhalation then pancreata and lungs were rapidly removed, divided into 3-4 pieces, and blood was collected by intracardiac puncture.”

Hemin
macrophage recruitment to the pancreas after hemin priming of recipients (macrophages): stimulates pancreatic chemokine production and triggers migration of macrophages to the pancreas
cell type of pancreatic HO-1 induction (HO-1): occurs in non-epithelial cells
HO-2 levels (HO-2): did not change
pancreatic injury (CDD-induced pancreatitis; figure title): inhibition of pancreatic injury
pancreas histology (edema, necrosis) (CDD-induced pancreatitis; hematoxylin and eosin, mice that survived CDD feeding): marked pancreas edema (E) and necrosis (N) in the saline (not shown) and vehicle injected mice, as compared with the “hemin” group
survival (CDD-induced pancreatitis; hemin 3× then CDD 3 d, 8 mice/group, p<0.03 vs controls (saline+vehicle)): survival difference was significant
HO-1^+ pancreatic macrophages [1]: increases
